Laboratory results as given in patent US3987055A, “Azasteroids compounds and derivatives” (The Board of Regents for the Oklahoma Agricultural & …, priority 1974, dated 1976).
Several values for one entry are separate records, joined by “and”; a condition that tells them apart may be missing. Equal values may be shown once. Numbered stars: 1 amine (or outer) side, 2 acyl side, 3 side chain; on linkers, the order of the positions; unused ones are H or OH. Bridge positions count the residues as written; N and C are the ends. Square brackets hold non-standard residues; d marks the D form. Peptide text beside a SMILES is read from it. I, II: the chains in the order shown. Actinocin(9to1) = Cc1c2oc3c(C)ccc(C(=O)[*:1])c3nc-2c(C(=O)[*:2])c(N)c1=O; NMeV = CN[C@H](C(=O)O)C(C)C; Sar = CNCC(=O)O

How the values were obtained:
[1] = effects on testis function: body, testis and seminal vesicle weight; assay type: in vivo, mice (ICR-Swiss adult male); conditions: average; 0.2 mg per day s.c., 10 days
Protocol: The compounds as shown in Table 7 were dissolved in a minimal amount of ethanol and diluted in sesame oil (1 mg/ml). After dilution, samples were stored at 5° C in the dark and flushed with N2 every 24 hours. The compounds were injected subcutaneously into adult male mice for a period of 10 days. Each mouse injected received a total dose of 2 mg over the 10 day period or 0.2 mg per day. The mice were random bred males of the ICR-Swiss strain and were used in the study when they reached 75±2 days of age. Mice were maintained in air-conditioned and light-controlled (14 hour light/24 hour) animal quarters and provided with lab food and water ad libitum. Animals were necropsied 24 hours after the last injection. Testes and seminal vesicles were excised, trimmed of adhering tissue and weighed fresh at the nearest one-tenth milligram.

rat testis tubules [2] = assay: lysine-U-14C incorporation into protein by rat testis tubules in vitro; assay type: cell-based; conditions: for AVERAGE OF TWO FLASK lysine incorporation: average of two flasks; for protein synthesis by teased testis tubules: in words; for lysine incorporation into protein per 100 mg / lysine incorporation into protein per flask: individual flask, 250 mg per flask (so in the source), 1 hour, 33° C
Protocol: (§1) For these investigations the compounds were diluted in a minimal amount of ethanol and further diluted in saline (0.85%) so that the final concentration was 1 mg/ml. The compounds were placed in solution and gassed under N2 and stored at 5° C until used 2 days later for the in vitro incubation studies. Details of the in vitro incubation procedures may be found in Endocrinology 89:791-800 (1971).
The effects of the compounds on the incorporation of lysine -U-^14 C into trichloroacetic (TCA) precipitable protein of rat testes was investigated by incubating about 200 mg of teased testis tubules from mature rats in a 25 ml Erlenmeyer flask containing 3 ml of Krebs Ringer bicarbonate buffer (pH 7.4), L-lysine-U-^14 C (0.5 μCi; 0.1mM), glucose (10 mM) and 0.25 ml of the azasteroid to be tested. The flasks were incubated for 1 hour at 33° C under 95% O2 : 5% CO2 and the TCA precipitable protein was isolated and an aliquot used to measure radioactivity.
CPM = counts per minute. All compounds were tested in a concentration of […]

L-M cells = assay: growth inhibition of mouse L-M cell line; assay type: cell-based
Protocol: Cells (1 × 10^5 /ml) were added to the "incubated" compound-containing medium.

KB cells [3] = assay: relative plating efficiency of KB cells (colony formation, 7 days); assay type: cell-based, human
Protocol: The KB cells were plated in plastic tissue culture dishes and grown in a 5% CO2 gas phase incubator for 7 days. The medium was removed, the plates washed with Hanks' salt solution and the cells stained with a 0.5% aqueous crystal violet solution, rinsed and dried. The colonies were counted and the relative plating efficiency calculated using the number of control colonies as 100 percent.

rat testis tubules [4] = assay: glucose oxidation (glucose-U-14C) by rat testis tubules in vitro; assay type: cell-based; conditions: for AVERAGE glucose oxidation: average of flasks; for depression of glucose oxidation in vitro: in words; for GLUCOSE OXIDATION per 100 mg / GLUCOSE OXIDATION per flask: individual flask, 250 mg per flask (so in the source), 2 hours, 33° C; for % DEVIATION FROM CONTROL, glucose oxidation: versus saline, 120 min
Protocol: as §1
The effects of these compounds on glucose oxidation by testis tubules was examined by incubating about 200 mg of teased testis tubules from mature rats in a 25 ml Erlenmeyer flask containing 3 ml of Krebs Ringer bicarbonate buffer (pH 7.4), D-glucose-U-^14 C (0.5 μCi; 10mM) and 0.25 ml of the azasteroid (1 mg/ml) to be tested. The flasks were incubated for 2 hours at 33° C under 95% O2 :5% CO2. The reaction was terminated by adding 0.25 ml of 5 N H2 SO4. Carbon dioxide was trapped in 0.25 ml of hydroxide of Hyamine. The radioactivity present in the Hyamine was determined by liquid scintillation spectrometry. This table includes a detailed summary of the results obtained and an average for each compound. […] Thus, the compounds have potential for antifertility activity in the control of wild rodent populations and possibly stray animals such as dogs and cats.
CPM = counts per minute. Glucose-U-^14 C activity was 0.5 millicurie.
All compounds were tested in a concentration of 250 mg per flask.

Cells (1 × 10^5 /ml) = assay: potency after pre-incubation of compound in growth medium without cells; assay type: cell-based; conditions: 4 days
Protocol: To ascertain if the potency of compound 5d was reduced during the incubation in the growth medium in the absence of cells, compound 5d (20 μg/ml) was added to the medium and incubated at 37° C on a shaker for 4 days. Cells (1 × 10^5 /ml) were added to the "incubated" compound-containing medium. The inhibition pattern obtained from the "incubated" medium was identical to that obtained when compound 5d (20 μg/ml) was added simultaneously with the inoculation. […] Since the compounds are not inactivated by serum, their effectiveness for animal use or human tests is enhanced. This fact is stressed in animal studies recited in Example IX below.

[5] = test system: acid phosphatase, KB and L-M cells; assay: relative acid phosphatase staining (permeability of lysosomal membrane) of KB and L-M cells; assay type: cell-based, human (KB) and mouse (L-M); design: key to Relative acid phosphatase staining: light: cells showing only a few scattered granules; medium: more dense but distinct isolated granules were still detected; heavy: a more intense staining with fewer discrete granules; conditions: 20 μg/ml
Protocol: KB and L-M cells were grown on coverslips in medium 199 with 10% calf serum for the 24 hour growth prior to staining in the presence or absence of compound 5c (20 μg/ml) or compound 5d (20 μg/ml). The cells were washed in Hanks' salt solution, incubated at 37° C in Gomori's substrate solution for 1, 2, or 3 hours, washed, treated with a 1% solution of ammonium sulfide, washed, mounted and observed microscopically. Light staining was designated as cells showing only a few scattered granules; medium staining was more dense but distinct isolated granules were still detected; and heavy staining a more intense staining with fewer discrete granules. Heavy staining denotes increased phosphatase activity.
The acid phosphatase activity was measured in KB and L-M cells grown in medium in the presence or absence compound 5c or 5d (20 μg/ml) for 2 or 24 hours prior to staining (Table 2). Quantitative evaluation of the relative staining intensity of the lysosomes was compared in the treated and untreated cells. […] Thus, cells grown in the presence of compound 5c accumulate the phosphatase substrate within the lysosomes much more rapidly than the control or compound 5d treated cells indicating the compounds ability to alter membrane permeability and thus regulate the accumulation of essential metabolites. Control of this cellular capacity permits regulation of cell division so important in cancer chemotherapy. Since the permeation of the substrate is the rate-limiting step in the phosphatase determination, compound 5c produces a modification of the lysosomal membrane which increased the permeability of the lysosome to the substrate. The results also emphasize the difference in biological activity of compound 5c and 5d type molecules which chemically are similar except at C-3. Differences in the biological activity have been observed when the compounds were tested using various bacteria.

KB cells [6] = assay: growth inhibition of human tumor KB cell line; assay type: cell-based; conditions: 10 μg/ml or greater, read-out: concentration at which growth was inhibited
Protocol: For example, growth of both the human tumor KB* and the mouse L-M** cell lines was inhibited when the cells were grown in media containing 10 μg/ml or greater

[7] = test system: sarcoma 180 ascitis cells; assay: antitumor activity, sarcoma 180 ascites in mice, survival; assay type: in vivo, mice (Swiss albino CD-1 female); conditions: i.p., 5 injections
Protocol: The test system utilized involved Swiss albino CD-1 female mice weighing 25-27 grams which were injected (i.p.) with 1 × 10^6 viable sarcoma 180 ascitis cells. Chemotherapy was initiated 24 hours post-injection with a protocol of five intra-peritonaeal injections at 24 hour intervals.
Animals were weighted at 24 hour intervals and the survival time recorded for each test group.

B. subtilis W23 = assay: antimicrobial activity in combination with selected antibiotics; assay type: cell-based; conditions: alone; B. subtilis W23
Protocol: Several antibiotics act at the cell surface. The antimicrobial activity of the hydroxybenzindazole in combination with selected antibiotics was measured.
Both Polymyxin (Pfizer, Inc.) and Circulin (Upjohn Co.) are surface active compounds thought to cause disorganization of the cell membrane leading to a loss of intracellular components. The enhanced antimicrobial activity observed with the combination of hydroxybenzindazole and antibiotics denotes a more pronounced distortion in the cell surface. Thus, much lower concentrations of the compounds can be used in medicinal applications providing an opportunity for toxic compounds to have greater medicinal applicability and use.
Failure of the mixture of hydroxybenzindazole and chloramphenicol to show an enhanced inhibition of growth could be correlated with the internal site of action of chloramphenicol, which is blockage of the binding of the 30s and 50s ribosomal subunits.

Structure (SMILES) | Body Weight [1] | Mg Testes Per g Body Wt. [1] | Seminal Vesicle weight [1] | Testes Paired weight [1] | AVERAGE OF TWO FLASK lysine incorporation (rat testis tubules [2]) | protein synthesis by teased testis tubules (rat testis tubules [2]) | lysine incorporation into protein per 100 mg (rat testis tubules [2]) | lysine incorporation into protein per flask (rat testis tubules [2]) | AVERAGE glucose oxidation (rat testis tubules [4]) | depression of glucose oxidation in vitro (rat testis tubules [4]) | GLUCOSE OXIDATION per 100 mg (rat testis tubules [4]) | GLUCOSE OXIDATION per flask (rat testis tubules [4]) | % DEVIATION FROM CONTROL, glucose oxidation (rat testis tubules [4]) | other results
COc1ccc2c3c(ccc2c1)C1=NCCC1(C)CC3 (stereo not shown) [Compound 5d, 1,10,11,11a-tetrahydro-7-methoxy-11a-methyl-2H-naphth[1,2-g]indole] | 32.3 g | 6.32 Mg per g | 67.7 mg | 201.6 mg | 1,565 CPM/100 mg tissue | depress protein synthesis | 1,585 CPM/100 mg and 1,546 CPM/100 mg | 3,225 CPM/FLASK and 3,125 CPM/FLASK | 12,140 CPM/100 mg TISSUE | depressed glucose oxidation in vitro more than compounds 4 c and 11b | 16,081 CPM/100 mg and 8,200 CPM/100 mg | 32,194 CPM/FLASK and 16,539 CPM/FLASK | +17.4% | growth rate versus control (L-M cells; 1 μg/ml): same growth rate as the control; growth inhibition at 20 μg/ml (L-M cells; 20 μg/ml): depressed the growth rate only slightly over the rate observed with 10 μg/ml; inhibition at 10 µg/mL (L-M cells; Mus musculus, 96 h, 10 μg/ml, fourth day, read-out: reduction in growth as compared to the control): 30%; minimal effective concentration (L-M cells; Mus musculus, L-M cells, 10 μg/ml or greater, read-out: concentration at which growth was inhibited): ≥ 10 µg/mL; effect on the relative plating efficiency (KB cells [3]; 1 μg/ml): little effect; inhibition of growth compared with control culture (KB cells [3]; 10 and 20 μg/ml): only a very slight inhibition of growth; activity at 1 µg/mL (KB cells [3]; Homo sapiens, KB, 168 h, 1 μg/ml): 97%; activity at 10 µg/mL (KB cells [3]; Homo sapiens, KB, 168 h, 10 μg/ml): 82%; activity at 20 µg/mL (KB cells [3]; Homo sapiens, KB, 168 h, 20 μg/ml): 79%; inhibition pattern from incubated medium versus simultaneous addition (Cells (1 × 10^5 /ml); 20 μg/ml, medium pre-incubated 37° C): identical; detoxification by auto-oxidation or enzymatic (serum) processes in culture medium (Cells (1 × 10^5 /ml); 37° C): does not occur; Relative acid phosphatase staining ([5]; 24 h, 1 hour in substrate): none and did not stain; Relative acid phosphatase staining ([5]; 24 h, 2 hours in substrate): light; Relative acid phosphatase staining ([5]; 24 h, 3 hours in substrate): medium; staining reaction versus control ([5]; 24 h, all three substrate incubation times): identical staining reactions; staining intensity versus untreated cells ([5]; cells treated for 2 hours): indistinguishable from untreated cells; minimal effective concentration (KB cells [6]): ≥ 10 µg/mL
Cc1c2oc3c(C)ccc(C(=O)N[C@@H]4C(=O)N[C@H](C(C)C)C(=O)N5CCC[C@H]5C(=O)N(C)CC(=O)N(C)[C@@H](C(C)C)C(=O)O[C@@H]4C)c3nc-2c(C(=O)N[C@@H]2C(=O)N[C@H](C(C)C)C(=O)N3CCC[C@H]3C(=O)N(C)CC(=O)N(C)[C@@H](C(C)C)C(=O)O[C@@H]2C)c(N)c1=O [Actinomycin D, reference compound] (I: T[dV]P[Sar][NMeV] / II: T[dV]P[Sar][NMeV]; ester I:1-I:C, II:1-II:C; linker I:N-II:N via Actinocin(9to1)) | – | – | – | – | – | – | – | – | – | – | – | – | – | Survival ratio T/C (survival time of test animal / control animal) ([7]; 4 μg/injection, total 20 μg): 1.9
Oc1ccc2c3c(ccc2c1)-c1[nH]ncc1CC3 [Compound 11a, 10,11-Dihydro-3H-naphth[1,2-g]indazol-7-ol] | – | – | – | – | – | – | – | – | – | – | – | – | – | Survival ratio T/C (survival time of test animal / control animal) ([7]; 0.8 μg/injection, total 4 μg): 1.0
COc1ccc2c3c(ccc2c1)-c1[nH]ncc1CC3 [Compound 11b, 10,11-Dihydro-7-methoxy-3H-naphth[1,2-g]indazole] | 34.0 g | 6.67 Mg per g | 88.7 mg | 229.0 mg | 1,155 CPM/100 mg tissue | depress protein synthesis | 1,194 CPM/100 mg and 1,116 CPM/100 mg | 2,325 CPM/FLASK and 2,225 CPM/FLASK | 9,550 CPM/100 mg TISSUE | comparable to saline | 11,590 CPM/100 mg and 7,510 CPM/100 mg | 23,529 CPM/FLASK and 15,382 CPM/FLASK | – | –
CC12CCc3cc(O)ccc3C1=NNC2=O (racemic) [Compound 4c] | 35.7 g | 7.28 Mg per g | 82.1 mg | 261.0 mg | 1,389 CPM/100 mg tissue | depress protein synthesis | 1,309 CPM/100 mg and 1,470 CPM/100 mg | 2,575 CPM/FLASK and 2,925 CPM/FLASK | 8,705 CPM/100 mg TISSUE | comparable to saline | 8,847 CPM/100 mg and 8,564 CPM/100 mg | 17,350 CPM/FLASK and 17,325 CPM/FLASK | -19.94% | –
CC1(C)S[C@@H]2[C@H](NC(=O)Cc3ccccc3)C(=O)N2[C@H]1C(=O)O [penicillin, reference compound] | – | – | – | – | – | – | – | – | – | – | – | – | – | inhibition of growth, tested separately (B. subtilis W23): very slight inhibition of growth
